Measurements: patent US9776972B2, “Pyrazole derivatives as arginine methyltransferase inhibitors and uses thereof” (priority 2013, dated 2017)

What was measured:
human PRMT6 = biological target: T1, human PRMT6 (Homo sapiens, UniProt Q96LA8); assay: PRMT6 Biochemical Assay (3H-SAM Flashplate, peptide substrate); details: Biochemical IC50 PRMT6, single experiment or average of multiple experiments
T1 construct: Flag-PRMT6-His; made in house; host or cells: HEK 293F cells (BacMam baculovirus)
In short: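 Methylation of a biotin-tagged H4 (36-50) peptide by ³H-SAM was quantified by streptavidin Flashplate capture and scintillation counts (dpm/cpm). Before SAM/peptide addition, Flag-PRMT6-His was preincubated with compound for 30 min at room temperature in Bicine buffer, pH 7.6.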

human PRMT8 = human PRMT8 (Homo sapiens, UniProt Q9NR22); assay: PRMT8 Biochemical Assay (3H-SAM Flashplate, peptide substrate); details: single experiment or average of multiple experiments
human PRMT8, sequence (Q9NR22 whole entry, the tested form may be a part): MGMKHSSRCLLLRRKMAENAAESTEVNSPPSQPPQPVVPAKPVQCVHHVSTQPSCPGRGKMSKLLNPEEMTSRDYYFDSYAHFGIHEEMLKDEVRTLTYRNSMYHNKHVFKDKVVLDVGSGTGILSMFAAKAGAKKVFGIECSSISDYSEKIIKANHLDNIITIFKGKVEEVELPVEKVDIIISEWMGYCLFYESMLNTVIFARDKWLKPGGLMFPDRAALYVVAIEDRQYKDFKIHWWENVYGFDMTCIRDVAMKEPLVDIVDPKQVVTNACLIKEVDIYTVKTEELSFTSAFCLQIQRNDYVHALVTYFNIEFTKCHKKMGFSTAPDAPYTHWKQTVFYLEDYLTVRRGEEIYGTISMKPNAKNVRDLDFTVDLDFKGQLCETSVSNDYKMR
In short: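 Methylation of a biotin-tagged histone H4 peptide (residues 31-45) by recombinant PRMT8 was measured as 3H transfer from 3H-SAM, after a 30 min room-temperature compound preincubation in Bicine buffer pH 7.6. Reactions were quenched with unlabelled SAM to 400 uM final, then bound counts were read by streptavidin Flashplate. IC50 came from a Hill fit of % inhibition relative to max and SAH min controls.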

T1 sequence (Q96LA8 with tags, fused parts or gaps): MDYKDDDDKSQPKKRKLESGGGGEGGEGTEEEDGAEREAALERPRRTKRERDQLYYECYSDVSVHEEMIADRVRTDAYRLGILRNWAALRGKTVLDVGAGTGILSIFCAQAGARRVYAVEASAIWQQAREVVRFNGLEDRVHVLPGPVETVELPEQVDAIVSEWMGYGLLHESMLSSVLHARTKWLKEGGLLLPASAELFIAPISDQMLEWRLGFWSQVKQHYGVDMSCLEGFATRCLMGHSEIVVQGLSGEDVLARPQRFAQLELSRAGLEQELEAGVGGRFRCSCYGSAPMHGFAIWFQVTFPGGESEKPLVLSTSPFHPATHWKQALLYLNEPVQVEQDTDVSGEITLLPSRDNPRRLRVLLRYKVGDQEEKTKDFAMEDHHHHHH

Row | Structure (SMILES) | IC50 (human PRMT6) [nM] | IC50 (human PRMT8) [nM]
1 | CN(CCN)Cc1c[nH]nc1-c1cccc(N(C)C)c1 [Compound 149] | 62.5 | 910
2 | Cc1cc(-c2n[nH]cc2CN(C)CCN)cc(C)c1OC(C)C [Compound 199, N^1-((3-(4-isopropoxy-3,5-dimethylphenyl)-1H-pyrazol-4-yl)methyl)-N^1-methylethane-1,2-diamine] | 103 | 459
3 | CC(C)Oc1ccc(-c2nn(C)cc2CN(C)CCN)cc1 [Compound 176] | 67.3 | –
4 | C=CCn1cc(CN(C)CCNC)c(-c2ccc(OC(C)C)cc2)n1 [Compound 218] | 132 | –
5 | CN(CCN)Cc1c[nH]nc1-c1ccc2c(c1)OCC(=O)N2C [Compound 192] | 34.6 | 2010
6 | CC(C)Cc1ccc(-c2c[nH]nc2CN(C)CCN)cc1 [Compound 170] | 59.3 | 160
7 | CC(C)Oc1ccc(-c2c(CN(C)CCN)cnn2C)cc1 [Compound 177] | 34.2 | –
8 | CCn1cc(CN(C)CCNC)c(-c2ccc(OC(C)C)cc2)n1 [Compound 213] | 82.1 | –
9 | Cc1ccc(C#N)cc1-c1n[nH]cc1CN(C)CCN [Compound 158] | 115 | –
10 | CN(CCN)Cc1c(-c2ccc(C#N)cc2)ncn1C [Compound 222] | 1160 | 8880
11 | CCN(C)C(=O)c1ccc(-c2n[nH]cc2CN(C)CCN)cc1 [Compound 163] | 62.6 | 1430
12 | CN(CCN)Cc1c[nH]nc1-c1cc(Cl)ccc1F [Compound 156] | 43.1 | 1710
13 | NCCN(CCO)Cc1c[nH]nc1-c1ccc(F)cc1 [Compound 171] | 2420 | 2630
14 | CC(C)CN(C)C(=O)c1ccc(-c2n[nH]cc2CN(C)CCN)cc1 [Compound 164] | 41.8 | 2180
15 | CC(C)Oc1cccc(-c2n[nH]cc2CN(C)CCN)c1 [Compound 187] | 77.6 | 1700
16 | Cc1ccccc1-c1n[nH]cc1CN(C)CCN [Compound 161] | 96.5 | 2100
17 | CN(CCN)Cc1c[nH]nc1-c1ccc(C(F)(F)F)cc1F [Compound 148] | 68.2 | 809
18 | CNCCN(C)Cc1cn(C2CC2)nc1-c1ccc(F)cc1 [Compound 13] | 271 | –
19 | CC(C)CN1C(=O)COc2ccc(-c3n[nH]cc3CN(C)CCN)cc21 [Compound 191] | 435 | 4110

Row | Structure (SMILES) | IC50 (human PRMT6) [nM] | IC50 (human PRMT8) [nM]
20 | CNCCN(C)Cc1cn(C2CCCC2)nc1-c1ccc(OC(C)C)cc1 [Compound 214] | 124 | –
21 | CN(CCN1CCC1)Cc1c[nH]nc1-c1ccc(C#N)cc1 [Compound 185] | 407 | 4370
22 | COc1ccc(F)cc1-c1n[nH]cc1CN(C)CCN [Compound 160] | 191 | 3010
23 | CNCCN(C)Cc1cn(C(C)C)nc1-c1ccc(F)cc1 [Compound 15] | 526 | –
24 | CCNC(=O)c1cccc(-c2n[nH]cc2CN(C)CCN)c1 [Compound 197] | 67.2 | 2100
25 | COc1ccc(-c2n[nH]cc2CN(C)CCN)c(C(F)(F)F)c1 [Compound 154] | 375 | 6170
26 | CN(CCN(C)C1CC1)Cc1c[nH]nc1-c1ccc(C#N)cc1 [Compound 184] | 2380 | 3030
27 | CC(C)Oc1cc(-c2n[nH]cc2CN(C)CCN)ccc1F [Compound 188] | 37.4 | 2890
28 | COc1cc(F)ccc1-c1n[nH]cc1CN(C)CCN [Compound 151] | 112 | 1370
29 | CN(CCN)Cc1c[nH]nc1-c1cc(C#N)ccc1Cl [Compound 147] | 53.6 | –
30 | COc1ccc(Cl)cc1-c1n[nH]cc1CN(C)CCN [Compound 157] | 504 | 5820
31 | CNCCN(C)Cc1cn(C)nc1-c1ccc(OC(C)C)c(Cl)c1 [Compound 206] | 21.4 | 349
32 | Cc1[nH]nc(-c2ccc(F)cc2)c1CN(C)CCN [Compound 169] | 85 | 2990
33 | CNCCN(C)Cc1cnn(C(C)C)c1-c1ccc(F)cc1 [Compound 16] | 57.9 | –
34 | CCN(C)C(=O)c1cccc(-c2n[nH]cc2CN(C)CCN)c1 [Compound 198] | 322 | –
35 | CN(CCN)Cc1c[nH]nc1-c1ccc(Oc2ccccc2)c(F)c1 [Compound 224, N^1-((3-(3-fluoro-4-phenoxyphenyl)-1H-pyrazol-4-yl)methyl)-N^1-methylethane-1,2-diamine] | 1.98 | 346
36 | CNCCN(C)Cc1cn(Cc2ccccc2)nc1-c1ccc(OC(C)C)cc1 [Compound 217] | 42.1 | –
37 | CNCCN(C)Cc1cn(C2CCOC2)nc1-c1ccc(OC(C)C)cc1 (stereo not drawn) [Compound 215] | 323 | –

Further lines, results first:

Row | IC50 (human PRMT6) [nM] | IC50 (human PRMT8) [nM] | Structure (SMILES)
38 | 1.33 | 35.8 | CN(CCN)Cc1c[nH]nc1-c1ccc(Oc2ccc(F)cc2)cc1 [Compound 225, N^1-((3-(4-(4-fluorophenoxy)phenyl)-1H-pyrazol-4-yl)methyl)-N^1-methylethane-1,2-diamine]
39 | 27.7 | 1380 | CNCCN(C)Cc1cnn(C2CC2)c1-c1ccc(F)cc1 [Compound 14]
40 | 13.8 | 7250 | CN(CCN)Cc1c[nH]nc1-c1ccc(Oc2ccccc2)c(C(=O)N(C)C)c1 [Compound 226]
41 | 2.9 | 187 | CN(CCN)Cc1c[nH]nc1-c1ccc(Oc2ccccc2)c(C#N)c1 [Compound 202]
42 | 26.4 | 3260 | CN(CCN)Cc1c[nH]nc1-c1ccc(OCCN2CCOCC2)cc1 [Compound 172]
43 | 11.6 | 132 | COc1ccc(-c2n[nH]cc2CN(C)CCN)cc1 [Compound 153]
44 | 29 | 566 | CCOC(=O)c1cccc(-c2n[nH]cc2CN(C)CCN)c1 [Compound 150]
45 | 13.6 | 483 | CNCCN(C)Cc1cn[nH]c1-c1cc(F)cc(F)c1 [Compound 18]
46 | 16.1 | 182 | CNCCN(C)Cc1n[nH]cc1-c1ccc(OC(C)C)c(F)c1 [Compound 210]
47 | 14.9 | 3080 | CN(CCN)Cc1c[nH]nc1-c1ccc2c(c1)NC(=O)CO2 [Compound 173]
48 | 5.48 | 271 | CNCCN(C)Cc1c[nH]nc1-c1ccc(Cl)c(F)c1 [Compound 182]
49 | 1.14 | 69.3 | CNCCN(C)Cc1n[nH]cc1-c1ccc(Oc2ccccc2)cc1 [Compound 204]
50 | 8.22 | 316 | CNCCN(C)Cc1c[nH]nc1-c1ccc(OCCCOC)c(Cl)c1 [Compound 228]
51 | 7.71 | 273 | Cc1ccc(-c2n[nH]cc2CN(C)CCN)cc1 [Compound 162]
52 | 7.22 | – | CN(CCN)Cc1c[nH]nc1-c1ccc(OC2CCOCC2)cc1 [Compound 178]
53 | 20.5 | 117 | CC(C)Oc1ccc(-c2c[nH]nc2CN(C)CCN)cc1Cl [Compound 211]
54 | 17.3 | – | CNCCN(C)Cc1c[nH]nc1-c1ccc(OC(C)C)c(F)c1 [Compound 181]
55 | 15 | 228 | CNCCN(C)Cc1c[nH]nc1-c1ccc(C(F)(F)F)cc1 [Compound 174]
56 | 4.05 | 483 | CNCCN(C)Cc1c[nH]nc1-c1ccc(OCCCOC)cc1 [Compound 209]

Row | IC50 (human PRMT6) [nM] | IC50 (human PRMT8) [nM] | Structure (SMILES)
57 | 28.7 | 2580 | CN(CCN)Cc1c[nH]nc1-c1ccc2c(c1)N(C)C(=O)CO2 [Compound 196]
58 | 6.72 | 328 | CNCCN(C)Cc1c[nH]nc1-c1ccc(Oc2ccccc2)c(C#N)c1 [Compound 221]
59 | 11.5 | 660 | CNC(=O)c1cc(-c2n[nH]cc2CN(C)CCN)ccc1Oc1ccccc1 [Compound 227]
60 | 12.5 | – | CNCCN(C)Cc1c[nH]nc1-c1ccc(OC2CCOCC2)cc1 [Compound 175]
61 | 9.07 | 40.3 | CNCCN(C)Cc1n[nH]cc1-c1ccc(OC(C)C)c(Cl)c1 [Compound 212]
62 | 2.93 | 279 | CNCCN(C)Cc1cnn(C)c1-c1ccc(Oc2ccccc2)cc1 [Compound 208]
63 | 17.4 | 284 | COCCOc1ccc(-c2n[nH]cc2CN(C)CCN)cc1 [Compound 167]
64 | 22.7 | 983 | Cc1cc(F)ccc1-c1n[nH]cc1CN(C)CCN [Compound 152]
65 | 1.53 | 286 | CN(CCN)Cc1c[nH]nc1-c1ccc(Oc2cccc(F)c2)cc1 [Compound 205]
66 | 15.3 | 374 | CN(CCN)Cc1c[nH]nc1-c1ccc(OCCO)cc1 [Compound 194]
67 | 13.4 | – | COCCCOc1ccc(-c2n[nH]cc2CN(C)CCN)cc1 [Compound 179]
68 | 30.8 | – | C=CCn1ncc(CN(C)CCNC)c1-c1ccc(OC(C)C)cc1 [Compound 219]
69 | 15.6 | 191 | CCOc1ccc(-c2n[nH]cc2CN(C)CCN)cc1 [Compound 166]
70 | 2.42 | 185 | CN(CCN)Cc1n[nH]cc1-c1ccc(Oc2ccccc2)cc1 [Compound 203]
71 | 27.7 | – | CNCCN(C)Cc1cnn(C2CCOC2)c1-c1ccc(OC(C)C)cc1 (stereo not drawn) [Compound 216]
72 | 3.3 | 627 | CNCCN(C)Cc1cn(C)nc1-c1ccc(Oc2ccccc2)cc1 [Compound 207]
73 | 9.24 | 402 | CN(CCN)Cc1c[nH]nc1-c1ccc(OCCCO)cc1 [Compound 195]
74 | 27.3 | 879 | Cc1ccc(F)cc1-c1n[nH]cc1CN(C)CCN [Compound 159]
